Experimental data taken from patent publication EP0753300B1, “Use of antioxidative steroids for the manufacture of pharmaceutical preparations for substition therapy in man” (priority 1995, dated 1997).

Tests used:
[1] = type: in vivo, Mann
Excerpt: Die aufgezeigten Systeme […] Studie an ä[…]. […] Alter von 52 bis 63 Jahren über 6 Monate […] Probanden nahm eine weitere Medikation ein. Bei 6 der 12 Probanden ergab […]-, Leber- und […] vor Beginn der Studie bei allen Probanden unauffällig. Auch die Plasma-[…] Testosteron > 12 nmol/[…] Testosteron > 0,2 nmol/[…] 6 Probanden […] OGTT erhöhte Gesamtcholesterol- und […] die In-vivo-Bestimmung der LDL-Cholesterol-Oxidation und die Hormonanalysen wurden zu Studienbeginn, danach wöchentlich und einen Tag […] und morgendlichem Fasten jeweils zwischen 8 und 10 Uhr morgens).

[2] = Adjuvant arthritis in male rats, oral, 21 days; type: in vivo, Lewis-Ratten; details: for Sekundärarthritis Score: 8 per group, group sum, max. 72 (arthritic control); for % Hemmung Primärarthritis max. Wirkung: swelling of injected left hind paw
Protocol: Die Adjuvansarthritis bei Lewis-Ratten ist ein gut bekanntes und etabliertes Modell für die chronische Rheumatoid-Arthritis des Menschen [Newbould BB: Chemotherapy of arthritis induced in rats by mycobacterial adjuvant. Br. J. Pharmacol. 21:127-136 (1963); Hirschelmann R: Die 6-Sulfanilamidoindazol-Arthritis und die Adjuvansarthritis der Ratte als Modelle zur Testung von Antiphlogistika. Dissertation B (Habil.-Schrift), Halle, 1976]
Die Arthritis wurde durch Injektion von 0,1 ml Freund'sches Adjuvans in die linke Hinterpfote ausgelöst. Prüfparameter waren die Hemmung der Schwellung der linken Hinterpfote und der Grad der Sekundärarthritis durch Beurteilung der Schwellung der drei anderen Pfoten. Tabelle 3

[3] = test system: ICAM-1; experiment: Inhibition of TNFα-induced ICAM-1 expression in cultured endothelial cells (histological assessment); type: cell-based, humanen Ursprungs; parameters: key: +: wenig wirksam; ++: gut wirksam; +++: sehr gut wirksam; details: cultured human endothelial cells
Excerpt: (§1) J. Clin. Endocrinol. Metab. 7:1619-1624 (1994) ausgeführt. Als Vergleich zu […] 17β-Estradiol, welches mit (x) gekennzeichnet wurde. Tabelle 1

[4] = test system: VCAM-1; experiment: Inhibition of TNFα-induced VCAM-1 expression in cultured endothelial cells (histological assessment); type: cell-based, humanen Ursprungs; details: cultured human endothelial cells
Excerpt: as §1

[5] = Pentetrazol kindling, seizure stages in male mice; type: in vivo, Mäuse
Protocol: Aus Tabelle 2 ist ersichtlich, daß J 861 - 14,15α-Methylen-8-dehydro-17α-estradiol z.B. bereits in einer Dosierung von 1 mg/kg nach einmaliger oraler Gabe eine Stunde vor der krampfauslösenden Pentetrazol-Injektion an männlichen Mäusen das Krampfstadium 3 hemmt. In steigender Dosierung und bei längerer Substanzapplikation werden auch die anderen Krampfstadien beeinflußt.

[6] = Carrageenin paw oedema of the male rat; type: in vivo, Ratte; details: 24 hours after provocation of the oedema, inflammation no longer acute
[7] = target: T1, Estrogen-Rezeptor (Oryctolagus cuniculus, UniProt G1SML6); experiment: Estrogen receptor affinity, competitive binding with [3H]-Ethinylestradiol in uterus cytosol; parameters: species or system Kaninchen; details: quotient of IC50 of 17β-Estradiol and of test substance; rabbit uterus cytosol; tracer [3H]-Ethinylestradiol 3 nM; 0 to 4 °C, 18 h
T1 construct: Es wurden weibliche Kaninchen (weiße Neuseeländer) im Gewicht von 1,5 bis 2 kg in Barbituratnarkose getötet, die Uteri entnommen; from tissue; host or cells: rabbit uterus cytosol (100 000 g supernatant of the homogenate)
T1 sequence (G1SML6 1-598): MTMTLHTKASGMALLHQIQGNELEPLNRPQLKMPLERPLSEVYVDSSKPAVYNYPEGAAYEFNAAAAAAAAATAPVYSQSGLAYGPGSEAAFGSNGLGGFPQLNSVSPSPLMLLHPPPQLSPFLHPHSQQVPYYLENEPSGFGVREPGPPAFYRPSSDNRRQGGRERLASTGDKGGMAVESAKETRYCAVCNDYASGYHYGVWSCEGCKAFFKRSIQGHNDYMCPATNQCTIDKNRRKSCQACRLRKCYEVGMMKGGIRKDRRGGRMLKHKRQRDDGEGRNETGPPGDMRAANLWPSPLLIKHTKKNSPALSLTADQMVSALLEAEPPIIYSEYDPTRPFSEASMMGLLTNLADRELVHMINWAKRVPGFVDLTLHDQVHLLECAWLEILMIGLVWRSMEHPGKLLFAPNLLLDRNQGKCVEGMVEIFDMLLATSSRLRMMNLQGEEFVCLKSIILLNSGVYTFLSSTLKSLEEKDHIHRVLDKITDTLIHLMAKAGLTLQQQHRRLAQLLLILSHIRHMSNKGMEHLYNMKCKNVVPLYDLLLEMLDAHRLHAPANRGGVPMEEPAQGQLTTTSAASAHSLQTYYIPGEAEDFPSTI
Protocol: Die Affinität zum Estrogen Rezeptor wurde in Kaninchen-Uterus-Cytosol bestimmt durch competitive Bindung von ^3H-markiertem Tracer und der jeweils zu testenden Verbindungen in Konzentrationsreihen, die die IC50 einschlossen. […] Das nach Zentrifugieren bei 16 000 g und 100 000 g gewonnene Cytosol wurde portionsweise schockgefroren und bei -30 °C aufbewahrt. Das geeignet verdünnte Cytosol (Rezeptorkonzentration ca. 0,3 nM) wurde mit dem Tracer [^3H]-Ethinylestradiol (3nM) und den zu prüfenden Competitoren bei 0 bis 4 °C für 18 Stunden inkubiert. Der freie Tracer wurde durch Adsorption an Aktivkohle/Dextran (1 %/0,1 %) und Zentrifugation abgetrennt und die gebundene ^3H-Aktivität im Überstand gemessen.

[8] = 1,0 mg/kg, single oral dose one hour before pentetrazol

Compound: C[C@]12CC[C@@H]3c4ccc(O)cc4CC[C@H]3[C@@H]1CC[C@H]2O [17α-Estradiol]
- Einfluß auf die gewählten Hormonparameter ([1]; 2 mg daily, 6 months, older men, includes missing SHBG rise): nicht signifikant beeinflußt
- Schlafqualität und Libido ([1]; 2 mg daily, 6 months, reported by subjects): Verbesserung
- Freies Testosteron ([1]; Versuchsende, after 6 months 2 mg daily, 12 overweight men 52-63 years, Versuchsbeginn 0.32 ± 0.14): 0.33 ± 0.15 nmol/L
- DHEA ([1]; Versuchsende, after 6 months 2 mg daily, 12 overweight men 52-63 years, Versuchsbeginn 14.3 ± 10.6): 13.46 ± 8.13 nmol/L
- Gesamt-Testosteron ([1]; Versuchsende, after 6 months 2 mg daily, 12 overweight men 52-63 years, Versuchsbeginn 16.5 ± 4.6): 15.6 ± 5.1 nmol/L
- Insulin ([1]; Versuchsende, after 6 months 2 mg daily, 12 overweight men 52-63 years, Versuchsbeginn 17 ± 10): 15 ± 9 mlE/L
- SHBG ([1]; Versuchsende, after 6 months 2 mg daily, 12 overweight men 52-63 years, Versuchsbeginn 38 ± 17): 39 ± 18 nmol/L
- DHEAS ([1]; Versuchsende, after 6 months 2 mg daily, 12 overweight men 52-63 years, Versuchsbeginn 5412 ± 3711): 5660 ± 3292 nmol/L
- Lp(a) ([1]; Versuchsende, after 6 months 2 mg daily, Versuchsbeginn 6.0 ± 1.0): 5.7 ± 0.7 mg/dL
- LDL-Cholesterol ([1]; Versuchsende, after 6 months 2 mg daily, Versuchsbeginn 154 ± 10.5): 135 ± 5.2 mg/dL
- Gesamt-Cholesterol ([1]; Versuchsende, after 6 months 2 mg daily, Versuchsbeginn 225 ± 11.1, p<0.05): 195 ± 5.7 mg/dL
- Triglyceride ([1]; Versuchsende, after 6 months 2 mg daily, Versuchsbeginn 226 ± 31.1, p<0.05): 132 ± 1.5 mg/dL
- LDL-Cholesterol-Oxidation ([1]; older men under 17α-Estradiol, blood samples, figures not given): deutliche Verzögerung
- Sekundärarthritis Score ([2]; 1 mg/kg oral): 43
- % Hemmung Primärarthritis max. Wirkung ([2]; 1 mg/kg oral): 36%
- Sekundärarthritis Score ([2]; 10 mg/kg oral): 35
- % Hemmung Primärarthritis max. Wirkung ([2]; 10 mg/kg oral): 39%
- Hemmung der Expression von ICAM-1 [3]: + +
- Hemmung der Expression von VCAM-1 [4]: + +

Compound: C[C@]12CC[C@@H]3c4ccc(O)cc4CC[C@H]3[C@@H]1CC[C@@H]2O [17β-Estradiol, reference compound]
- Sekundärarthritis Score ([2]; 1 mg/kg oral): 47
- % Hemmung Primärarthritis max. Wirkung ([2]; 1 mg/kg oral): 21%
- Sekundärarthritis Score ([2]; 10 mg/kg oral): 36
- % Hemmung Primärarthritis max. Wirkung ([2]; 10 mg/kg oral): 35%
- Hemmung der Expression von ICAM-1 [3]: +
- Hemmung der Expression von VCAM-1 [4]: + +

Compound: NC(=O)N1c2ccccc2C=Cc2ccccc21 [Carbamazepin, reference compound]
- Krampfstadien 1/2 Kl (Krampfindex gesenkt) ([5]; 24 mg/kg): -
- Krampfstadien 1/2 LZ[s] (Latenzzeit bis zur Ausprägung der Krämpfe erhöht) ([5]; 24 mg/kg): +
- Krampfstadien 3 Kl (Krampfindex gesenkt) ([5]; 24 mg/kg): -
- Krampfstadien 3 LZ[s] (Latenzzeit bis zur Ausprägung der Krämpfe erhöht) ([5]; 24 mg/kg): +
- Krampfstadien 4/5/6 Kl (Krampfindex gesenkt) ([5]; 24 mg/kg): +
- Krampfstadien 4/5/6 LZ[s] (Latenzzeit bis zur Ausprägung der Krämpfe erhöht) ([5]; 24 mg/kg): ++

Compound: O=C(O)Cc1ccccc1Nc1c(Cl)cccc1Cl [Diclofenac-Natrium]
- Hemmeffekte [6]: nur noch geringe Hemmeffekte

Compound: C[C@]12CCC3=C(CCc4cc(O)ccc43)[C@@H]1CC[C@H]2O [J 811, 8-Dehydro-17α-estradiol]
- relative Bindungsaffinität zum Estrogen-Rezeptor (RBA) [7]: 21%

Compound: C[C@]12CCC3=C(CCc4cc(O)ccc43)[C@@]13C[C@H]3C[C@H]2O [J 861, 14,15α-Methylen-8-dehydro-17α-estradiol]
- relative Bindungsaffinität zum Estrogen-Rezeptor (RBA) [7]: 32%
- Krampfstadien 1/2 Kl (Krampfindex gesenkt) ([5]; 10 mg/kg): -
- Krampfstadien 1/2 LZ[s] (Latenzzeit bis zur Ausprägung der Krämpfe erhöht) ([5]; 10 mg/kg): -
- Krampfstadien 3 Kl (Krampfindex gesenkt) ([5]; 10 mg/kg): ++
- Krampfstadien 3 LZ[s] (Latenzzeit bis zur Ausprägung der Krämpfe erhöht) ([5]; 10 mg/kg): -
- Krampfstadien 4/5/6 Kl (Krampfindex gesenkt) ([5]; 10 mg/kg): +
- Krampfstadien 4/5/6 LZ[s] (Latenzzeit bis zur Ausprägung der Krämpfe erhöht) ([5]; 10 mg/kg): ++
- Krampfstadien 1/2 Kl (Krampfindex gesenkt) ([5]; 100 mg/kg): -
- Krampfstadien 1/2 LZ[s] (Latenzzeit bis zur Ausprägung der Krämpfe erhöht) ([5]; 100 mg/kg): -
- Krampfstadien 3 Kl (Krampfindex gesenkt) ([5]; 100 mg/kg): ++
- Krampfstadien 3 LZ[s] (Latenzzeit bis zur Ausprägung der Krämpfe erhöht) ([5]; 100 mg/kg): -
- Krampfstadien 4/5/6 Kl (Krampfindex gesenkt) ([5]; 100 mg/kg): +
- Krampfstadien 4/5/6 LZ[s] (Latenzzeit bis zur Ausprägung der Krämpfe erhöht) ([5]; 100 mg/kg): ++
- Krampfstadien 1/2 Kl (Krampfindex gesenkt) [5, 8]: -
- Krampfstadien 1/2 LZ[s] (Latenzzeit bis zur Ausprägung der Krämpfe erhöht) [5, 8]: -
- Krampfstadien 3 Kl (Krampfindex gesenkt) [5, 8]: +++
- Krampfstadien 3 LZ[s] (Latenzzeit bis zur Ausprägung der Krämpfe erhöht) [5, 8]: -
- Krampfstadien 4/5/6 Kl (Krampfindex gesenkt) [5, 8]: +
- Krampfstadien 4/5/6 LZ[s] (Latenzzeit bis zur Ausprägung der Krämpfe erhöht) [5, 8]: +
- Sekundärarthritis Score ([2]; 1 mg/kg oral): 72
- % Hemmung Primärarthritis max. Wirkung ([2]; 1 mg/kg oral): 16%
- Sekundärarthritis Score ([2]; 10 mg/kg oral): 46
- % Hemmung Primärarthritis max. Wirkung ([2]; 10 mg/kg oral): 38%
- Sekundärarthritis Score ([2]; 25 mg/kg oral): 38
- % Hemmung Primärarthritis max. Wirkung ([2]; 25 mg/kg oral): 61%
- Sekundärarthritis Score ([2]; 50 mg/kg oral): 35
- % Hemmung Primärarthritis max. Wirkung ([2]; 50 mg/kg oral): 47%
- Hemmung der Expression von ICAM-1 [3]: + + +
- Hemmung der Expression von VCAM-1 [4]: + + +
